{"source": "ChEMBL document CHEMBL3774317", "about": "“Design and synthesis of novel tamoxifen analogues that avoid CYP2D6 metabolism” (Eur J Med Chem, 2016)", "format_in_all_cases": "functional", "key": {"NCI-H226": {"tested_on": "NCI-H226", "assay": "Cytotoxicity against human NCI-H226 cells assessed as cell growth at 50 nM after 48 hrs by SRB assay", "conditions": "NCI-H226, 48 h, read-out: Activity"}, "NCI-H522": {"tested_on": "NCI-H522", "assay": "Cytotoxicity against human NCI-H522 cells assessed as cell growth at 50 nM after 48 hrs by SRB assay", "conditions": "NCI-H522, 48 h, read-out: Activity"}, "[1]": {"assay": "Cytotoxicity against human SNB75 cells assessed as cell growth at 50 nM after 48 hrs by SRB assay", "conditions": "SNB-75, 48 h, read-out: Activity"}, "[2]": {"assay": "Cytotoxicity against human LOXIMVI cells assessed as cell growth at 50 nM after 48 hrs by SRB assay", "conditions": "LOX IMVI, read-out: Activity"}, "[3]": {"assay": "Cytotoxicity against human TK10 cells assessed as cell growth at 50 nM after 48 hrs by SRB assay", "conditions": "TK-10, 48 h, read-out: Activity"}, "[4]": {"assay": "Cytotoxicity against human HL-60(TB) cells assessed as cell growth at 0.5 uM after 48 hrs by SRB assay", "conditions": "HL-60, 48 h, read-out: Activity"}, "[5]": {"assay": "Cytotoxicity against human IGROV1 cells assessed as cell growth at 50 uM after 48 hrs by SRB assay", "conditions": "IGROV-1, 48 h, read-out: Activity"}, "786-0": {"tested_on": "786-0", "assay": "Cytotoxicity against human 786-0 cells assessed as cell growth at 50 uM after 48 hrs by SRB assay", "conditions": "786-0, 48 h, read-out: Activity"}, "ACHN [6]": {"tested_on": "ACHN", "assay": "Cytotoxicity against human ACHN cells assessed as cell growth at 50 uM after 48 hrs by SRB assay", "conditions": "read-out: Activity"}, "ACHN [7]": {"tested_on": "ACHN", "assay": "Cytotoxicity against human ACHN cells assessed as cell growth at 0.5 uM after 48 hrs by SRB assay", "conditions": "read-out: Activity"}, "[8]": {"assay": "Cytotoxicity against human HL-60(TB) cells assessed as cell growth at 5 uM after 48 hrs by SRB assay", "conditions": "HL-60, 48 h, read-out: Activity"}, "SR": {"tested_on": "SR", "assay": "Cytotoxicity against human SR cells assessed as cell growth at 5 nM after 48 hrs by SRB assay", "conditions": "read-out: Activity"}, "[9]": {"assay": "Cytotoxicity against human UACC257 cells assessed as cell growth at 5 nM after 48 hrs by SRB assay", "conditions": "UACC-257, 48 h, read-out: Activity"}, "[10]": {"assay": "Cytotoxicity against human NCI-ADR-RES cells assessed as cell growth at 5 nM after 48 hrs by SRB assay", "conditions": "read-out: Activity"}, "A498": {"tested_on": "A498", "assay": "Cytotoxicity against human A498 cells assessed as cell growth at 5 nM after 48 hrs by SRB assay", "conditions": "A498, 48 h, read-out: Activity"}, "[11]": {"assay": "Cytotoxicity against human Caki1 cells assessed as cell growth at 5 nM after 48 hrs by SRB assay", "conditions": "CAKI-1, 48 h, read-out: Activity"}, "[12]": {"assay": "Cytotoxicity against human RXF393 cells assessed as cell growth at 5 nM after 48 hrs by SRB assay", "conditions": "RXF 393, 48 h, read-out: Activity"}, "[13]": {"assay": "Cytotoxicity against human SF539 cells assessed as cell growth at 5 uM after 48 hrs by SRB assay", "conditions": "SF-539, 48 h, read-out: Activity"}, "SN12C": {"tested_on": "SN12C", "assay": "Cytotoxicity against human SN12C cells assessed as cell growth at 5 uM after 48 hrs by SRB assay", "conditions": "read-out: Activity"}, "[14]": {"assay": "Cytotoxicity against human DU145 cells assessed as cell growth at 5 uM after 48 hrs by SRB assay", "conditions": "DU-145, 48 h, read-out: Activity"}, "EKVX": {"tested_on": "EKVX", "assay": "Cytotoxicity against human EKVX cells assessed as cell growth at 50 uM after 48 hrs by SRB assay", "conditions": "read-out: Activity"}, "[15]": {"assay": "Cytotoxicity against human HCC2998 cells assessed as cell growth at 50 uM after 48 hrs by SRB assay", "conditions": "HCC 2998, 48 h, read-out: Activity"}, "[16]": {"assay": "Cytotoxicity against human SF295 cells assessed as cell growth at 10^-7 M after 48 hrs by SRB assay", "conditions": "SF-295, 48 h, read-out: Activity"}, "Malme-3M": {"tested_on": "Malme-3M", "assay": "Cytotoxicity against human MALME-3M cells assessed as cell growth at 10^-7 M after 48 hrs by SRB assay", "conditions": "read-out: Activity"}, "ACHN [17]": {"tested_on": "ACHN", "assay": "Cytotoxicity against human ACHN cells assessed as cell growth at 10^-7 M after 48 hrs by SRB assay", "conditions": "read-out: Activity"}, "[18]": {"assay": "Cytotoxicity against human HCT116 cells assessed as cell growth at 10^-6 M after 48 hrs by SRB assay", "conditions": "HCT-116, 48 h, read-out: Activity"}, "[19]": {"assay": "Cytotoxicity against human SF295 cells assessed as cell growth at 10^-6 M after 48 hrs by SRB assay", "conditions": "SF-295, 48 h, read-out: Activity"}, "T47D": {"tested_on": "T47D", "assay": "Cytotoxicity against human T47D cells assessed as cell growth at 10^-4 M after 48 hrs by SRB assay", "conditions": "read-out: Activity"}, "[20]": {"assay": "Cytotoxicity against human SNB75 cells assessed as cell growth at 10^-6 M after 48 hrs by SRB assay", "conditions": "SNB-75, 48 h, read-out: Activity"}, "[21]": {"assay": "Cytotoxicity against human BT549 cells assessed as cell growth at 10^-6 M after 48 hrs by SRB assay", "conditions": "BT-549, 48 h, read-out: Activity"}, "[22]": {"assay": "Cytotoxicity against human HCC2998 cells assessed as cell growth at 10^-5 M after 48 hrs by SRB assay", "conditions": "HCC 2998, 48 h, read-out: Activity"}, "KM12": {"tested_on": "KM12", "assay": "Cytotoxicity against human KM12 cells assessed as cell growth at 10^-5 M after 48 hrs by SRB assay", "conditions": "KM12, 48 h, read-out: Activity"}, "[23]": {"assay": "Cytotoxicity against human SF295 cells assessed as cell growth at 10^-5 M after 48 hrs by SRB assay", "conditions": "SF-295, 48 h, read-out: Activity"}, "NCI-H23": {"tested_on": "NCI-H23", "assay": "Cytotoxicity against human NCI-H23 cells assessed as cell growth at 10^-8 M after 48 hrs by SRB assay", "conditions": "NCI-H23, 48 h, read-out: Activity"}, "[24]": {"assay": "Cytotoxicity against human HCT116 cells assessed as cell growth at 10^-8 M after 48 hrs by SRB assay", "conditions": "HCT-116, 48 h, read-out: Activity"}, "M14": {"tested_on": "M14", "assay": "Cytotoxicity against human M14 cells assessed as cell growth at 10^-8 M after 48 hrs by SRB assay", "conditions": "M14, 48 h, read-out: Activity"}, "[25]": {"assay": "Cytotoxicity against human NCI-ADR-RES cells assessed as cell growth at 10^-8 M after 48 hrs by SRB assay", "conditions": "read-out: Activity"}, "[26]": {"assay": "Cytotoxicity against human PC3 cells assessed as cell growth at 10^-5 M after 48 hrs by SRB assay", "conditions": "PC-3, 48 h, read-out: Activity"}, "MDA-MB-231": {"tested_on": "MDA-MB-231", "assay": "Cytotoxicity against human MDA-MB-231 cells assessed as cell growth at 10^-5 M after 48 hrs by SRB assay", "conditions": "MDA-MB-231, 48 h, read-out: Activity"}, "HT-29": {"tested_on": "HT-29", "assay": "Cytotoxicity against human HT-29 cells assessed as cell growth at 10^-4 M after 48 hrs by SRB assay", "conditions": "HT-29, 48 h, read-out: Activity"}, "[27]": {"assay": "Cytotoxicity against human UACC257 cells assessed as cell growth at 10^-4 M after 48 hrs by SRB assay", "conditions": "UACC-257, 48 h, read-out: Activity"}, "[28]": {"assay": "Cytotoxicity against human OVCAR4 cells assessed as cell growth at 10^-4 M after 48 hrs by SRB assay", "conditions": "OVCAR-4, 48 h, read-out: Activity"}}, "data": [{"molecule": "CCCCCCCCCC(=O)Oc1ccc(/C(=C(/C)c2ccccc2)c2ccc(OCCN3CCCC3)cc2)cc1", "values": [{"measurement": "growth at 0.05 µM", "setting": "NCI-H226", "result": 94, "unit": "%"}, {"measurement": "growth at 0.05 µM", "setting": "NCI-H522", "result": 98, "unit": "%"}, {"measurement": "growth at 0.05 µM", "setting": "[1]", "result": 83, "unit": "%"}, {"measurement": "growth at 0.05 µM", "setting": "[2]", "result": 97, "unit": "%"}, {"measurement": "growth at 0.05 µM", "setting": "[3]", "result": 97, "unit": "%"}, {"measurement": "growth at 0.5 µM", "setting": "[4]", "result": 75, "unit": "%"}, {"measurement": "growth at 50 µM", "setting": "[5]", "result": -58, "unit": "%"}, {"measurement": "growth at 50 µM", "setting": "786-0", "result": -84, "unit": "%"}, {"measurement": "growth at 50 µM", "setting": "ACHN [6]", "result": -92, "unit": "%"}, {"measurement": "growth at 0.5 µM", "setting": "ACHN [7]", "result": 88, "unit": "%"}, {"measurement": "growth at 5 µM", "setting": "[8]", "result": 94, "unit": "%"}, {"measurement": "growth at 0.005 µM", "setting": "SR", "result": 99, "unit": "%"}, {"measurement": "growth at 0.005 µM", "setting": "[9]", "result": 95, "unit": "%"}, {"measurement": "growth at 0.005 µM", "setting": "[10]", "result": 101, "unit": "%"}, {"measurement": "growth at 0.005 µM", "setting": "A498", "result": 61, "unit": "%"}, {"measurement": "growth at 0.005 µM", "setting": "[11]", "result": 88, "unit": "%"}, {"measurement": "growth at 0.005 µM", "setting": "[12]", "result": 101, "unit": "%"}, {"measurement": "growth at 5 µM", "setting": "[13]", "result": 92, "unit": "%"}, {"measurement": "growth at 5 µM", "setting": "SN12C", "result": 95, "unit": "%"}, {"measurement": "growth at 5 µM", "setting": "[14]", "result": 88, "unit": "%"}, {"measurement": "growth at 50 µM", "setting": "EKVX", "result": -97, "unit": "%"}, {"measurement": "growth at 50 µM", "setting": "[15]", "result": -77, "unit": "%"}]}, {"molecule": "C/C(=C(/c1ccc(O)cc1)c1ccc(OCCN2CCCC2)cc1)c1ccccc1", "values": [{"measurement": "growth at 0.1 µM", "setting": "[16]", "result": 94, "unit": "%"}, {"measurement": "growth at 0.1 µM", "setting": "Malme-3M", "result": 91, "unit": "%"}, {"measurement": "growth at 0.1 µM", "setting": "ACHN [17]", "result": 97, "unit": "%"}, {"measurement": "growth at 1 µM", "setting": "[18]", "result": 93, "unit": "%"}, {"measurement": "growth at 1 µM", "setting": "[19]", "result": 94, "unit": "%"}, {"measurement": "growth at 100 µM", "setting": "T47D", "result": -67, "unit": "%"}, {"measurement": "growth at 1 µM", "setting": "[20]", "result": 76, "unit": "%"}, {"measurement": "growth at 1 µM", "setting": "[21]", "result": 92, "unit": "%"}, {"measurement": "growth at 10 µM", "setting": "[22]", "result": -25, "unit": "%"}, {"measurement": "growth at 10 µM", "setting": "KM12", "result": 12, "unit": "%"}, {"measurement": "growth at 10 µM", "setting": "[23]", "result": -57, "unit": "%"}, {"measurement": "growth at 0.01 µM", "setting": "NCI-H23", "result": 92, "unit": "%"}, {"measurement": "growth at 0.01 µM", "setting": "[24]", "result": 97, "unit": "%"}, {"measurement": "growth at 0.01 µM", "setting": "M14", "result": 92, "unit": "%"}, {"measurement": "growth at 0.01 µM", "setting": "[25]", "result": 99, "unit": "%"}, {"measurement": "growth at 10 µM", "setting": "[26]", "result": 19, "unit": "%"}, {"measurement": "growth at 10 µM", "setting": "MDA-MB-231", "result": -10, "unit": "%"}, {"measurement": "growth at 100 µM", "setting": "HT-29", "result": -91, "unit": "%"}, {"measurement": "growth at 100 µM", "setting": "[27]", "result": -99, "unit": "%"}, {"measurement": "growth at 100 µM", "setting": "[28]", "result": -96, "unit": "%"}]}]}
